# Active and inactive are the calls of the source.
# Biological target: Adenylate kinase 2, mitochondrial (Homo sapiens, UniProt P54819)
# Further: in the data inactive means no Kd found up to 30 µM.
row,SMILES,Kd
1,N[C@@H]1CCCN(c2c(/C=C3\SC(=O)NC3=O)cccc2-c2ccccc2)C1,> 30 µM (inactive)
2,Cc1ccc(S(=O)(=O)Nc2nc3ccccc3nc2Nc2ccc3nsnc3c2)cc1,> 30 µM (inactive)
3,CN1CC[C@@H](c2c(O)cc(O)c3c(=O)cc(-c4ccccc4Cl)oc23)[C@@H]1CO,> 30 µM (inactive)
4,Cc1cc(-c2cc(O)ccc2Cl)cc2nnc(Nc3ccc(OCCN4CCCC4)cc3)nc12,> 30 µM (inactive)
5,CCN1CCN(Cc2ccc(-c3cc4c(N[C@H](C)c5ccccc5)ncnc4[nH]3)cc2)CC1 [AEE-788],> 30 µM (inactive)
6,Cn1ncc(Cl)c1-c1cc(C(=O)N[C@H](CN)Cc2cccc(F)c2)sc1Cl [AFURESERTIB],> 30 µM (inactive)
7,COc1cc(N2CCC(N3CCN(C)CC3)CC2)ccc1Nc1ncnc(Nc2ccccc2S(=O)(=O)C(C)C)n1 [ASP-3026],> 30 µM (inactive)
8,Cc1nc(N)sc1-c1ccnc(Nc2ccc(N3CCOCC3)cc2)n1 [CYC-116],> 30 µM (inactive)
9,CCc1cnn2c(NCc3ccc[n+]([O-])c3)cc(N3CCCC[C@H]3CCO)nc12 [DINACICLIB],> 30 µM (inactive)
10,CN1CCN(c2ccc3nc(-c4c(N)c5c(F)cccc5[nH]c4=O)[nH]c3c2)CC1 [DOVITINIB],> 30 µM (inactive)
11,Cc1cc(Nc2cc(N3CCN(C)CC3)nc(/C=C/c3ccccc3)n2)n[nH]1 [ENMD-2076],> 30 µM (inactive)

# Biological target: T1, Serine/threonine-protein kinase A-Raf (Homo sapiens, UniProt P10398)
# T1 sequence (P10398 whole entry): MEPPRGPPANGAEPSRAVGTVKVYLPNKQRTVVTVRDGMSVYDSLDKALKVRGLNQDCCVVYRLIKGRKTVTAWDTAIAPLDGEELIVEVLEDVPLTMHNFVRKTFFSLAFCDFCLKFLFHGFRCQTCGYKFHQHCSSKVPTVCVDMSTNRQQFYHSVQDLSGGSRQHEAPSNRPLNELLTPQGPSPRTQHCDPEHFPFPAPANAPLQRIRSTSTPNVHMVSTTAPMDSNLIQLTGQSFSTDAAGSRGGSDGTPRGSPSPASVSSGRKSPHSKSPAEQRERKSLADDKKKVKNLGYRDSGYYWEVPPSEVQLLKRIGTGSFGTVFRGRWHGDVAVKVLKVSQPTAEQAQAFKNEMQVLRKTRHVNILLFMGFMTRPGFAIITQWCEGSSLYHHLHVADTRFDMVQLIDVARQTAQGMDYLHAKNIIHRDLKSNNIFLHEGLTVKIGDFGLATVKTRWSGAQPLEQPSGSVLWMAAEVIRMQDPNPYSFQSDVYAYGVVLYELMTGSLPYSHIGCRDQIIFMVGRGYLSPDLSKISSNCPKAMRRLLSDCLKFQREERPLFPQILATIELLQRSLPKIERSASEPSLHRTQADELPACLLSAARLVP
row,SMILES,Kd
1,N[C@@H]1CCCN(c2c(/C=C3\SC(=O)NC3=O)cccc2-c2ccccc2)C1,> 30 µM (inactive)
2,Cc1ccc(S(=O)(=O)Nc2nc3ccccc3nc2Nc2ccc3nsnc3c2)cc1,> 30 µM (inactive)
3,CN1CC[C@@H](c2c(O)cc(O)c3c(=O)cc(-c4ccccc4Cl)oc23)[C@@H]1CO,> 30 µM (inactive)
4,Cc1cc(-c2cc(O)ccc2Cl)cc2nnc(Nc3ccc(OCCN4CCCC4)cc3)nc12,> 30 µM (inactive)
5,CCN1CCN(Cc2ccc(-c3cc4c(N[C@H](C)c5ccccc5)ncnc4[nH]3)cc2)CC1 [AEE-788],> 30 µM (inactive)
6,Cn1ncc(Cl)c1-c1cc(C(=O)N[C@H](CN)Cc2cccc(F)c2)sc1Cl [AFURESERTIB],> 30 µM (inactive)
7,COc1cc(N2CCC(N3CCN(C)CC3)CC2)ccc1Nc1ncnc(Nc2ccccc2S(=O)(=O)C(C)C)n1 [ASP-3026],> 30 µM (inactive)
8,Cc1nc(N)sc1-c1ccnc(Nc2ccc(N3CCOCC3)cc2)n1 [CYC-116],> 30 µM (inactive)
9,CCc1cnn2c(NCc3ccc[n+]([O-])c3)cc(N3CCCC[C@H]3CCO)nc12 [DINACICLIB],> 30 µM (inactive)
10,CN1CCN(c2ccc3nc(-c4c(N)c5c(F)cccc5[nH]c4=O)[nH]c3c2)CC1 [DOVITINIB],> 30 µM (inactive)
11,Cc1cc(Nc2cc(N3CCN(C)CC3)nc(/C=C/c3ccccc3)n2)n[nH]1 [ENMD-2076],> 30 µM (inactive)

# Biological target: Cyclin-dependent kinase 1 (Homo sapiens, UniProt P06493)
# Sequence (P06493 whole entry): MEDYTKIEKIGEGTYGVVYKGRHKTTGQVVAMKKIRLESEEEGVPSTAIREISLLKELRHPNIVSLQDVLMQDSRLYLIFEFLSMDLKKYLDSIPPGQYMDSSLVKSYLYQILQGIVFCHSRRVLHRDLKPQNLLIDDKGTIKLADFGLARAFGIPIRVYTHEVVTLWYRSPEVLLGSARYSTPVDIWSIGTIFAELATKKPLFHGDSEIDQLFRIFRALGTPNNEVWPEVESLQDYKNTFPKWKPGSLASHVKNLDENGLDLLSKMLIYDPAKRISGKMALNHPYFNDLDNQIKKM
row,SMILES,Kd
1,N[C@@H]1CCCN(c2c(/C=C3\SC(=O)NC3=O)cccc2-c2ccccc2)C1,> 30 µM (inactive)
2,Cc1ccc(S(=O)(=O)Nc2nc3ccccc3nc2Nc2ccc3nsnc3c2)cc1,> 30 µM (inactive)
3,CN1CC[C@@H](c2c(O)cc(O)c3c(=O)cc(-c4ccccc4Cl)oc23)[C@@H]1CO,4.23 µM (active)
4,Cc1cc(-c2cc(O)ccc2Cl)cc2nnc(Nc3ccc(OCCN4CCCC4)cc3)nc12,> 30 µM (inactive)
5,CCN1CCN(Cc2ccc(-c3cc4c(N[C@H](C)c5ccccc5)ncnc4[nH]3)cc2)CC1 [AEE-788],> 30 µM (inactive)
6,Cn1ncc(Cl)c1-c1cc(C(=O)N[C@H](CN)Cc2cccc(F)c2)sc1Cl [AFURESERTIB],> 30 µM (inactive)
7,COc1cc(N2CCC(N3CCN(C)CC3)CC2)ccc1Nc1ncnc(Nc2ccccc2S(=O)(=O)C(C)C)n1 [ASP-3026],> 30 µM (inactive)
8,CN1CCN(c2ccc3nc(-c4c(N)c5c(F)cccc5[nH]c4=O)[nH]c3c2)CC1 [DOVITINIB],> 30 µM (inactive)

# Biological target: T2, Mitogen-activated protein kinase kinase kinase 6 (Homo sapiens, UniProt O95382)
# T2 sequence (O95382 whole entry): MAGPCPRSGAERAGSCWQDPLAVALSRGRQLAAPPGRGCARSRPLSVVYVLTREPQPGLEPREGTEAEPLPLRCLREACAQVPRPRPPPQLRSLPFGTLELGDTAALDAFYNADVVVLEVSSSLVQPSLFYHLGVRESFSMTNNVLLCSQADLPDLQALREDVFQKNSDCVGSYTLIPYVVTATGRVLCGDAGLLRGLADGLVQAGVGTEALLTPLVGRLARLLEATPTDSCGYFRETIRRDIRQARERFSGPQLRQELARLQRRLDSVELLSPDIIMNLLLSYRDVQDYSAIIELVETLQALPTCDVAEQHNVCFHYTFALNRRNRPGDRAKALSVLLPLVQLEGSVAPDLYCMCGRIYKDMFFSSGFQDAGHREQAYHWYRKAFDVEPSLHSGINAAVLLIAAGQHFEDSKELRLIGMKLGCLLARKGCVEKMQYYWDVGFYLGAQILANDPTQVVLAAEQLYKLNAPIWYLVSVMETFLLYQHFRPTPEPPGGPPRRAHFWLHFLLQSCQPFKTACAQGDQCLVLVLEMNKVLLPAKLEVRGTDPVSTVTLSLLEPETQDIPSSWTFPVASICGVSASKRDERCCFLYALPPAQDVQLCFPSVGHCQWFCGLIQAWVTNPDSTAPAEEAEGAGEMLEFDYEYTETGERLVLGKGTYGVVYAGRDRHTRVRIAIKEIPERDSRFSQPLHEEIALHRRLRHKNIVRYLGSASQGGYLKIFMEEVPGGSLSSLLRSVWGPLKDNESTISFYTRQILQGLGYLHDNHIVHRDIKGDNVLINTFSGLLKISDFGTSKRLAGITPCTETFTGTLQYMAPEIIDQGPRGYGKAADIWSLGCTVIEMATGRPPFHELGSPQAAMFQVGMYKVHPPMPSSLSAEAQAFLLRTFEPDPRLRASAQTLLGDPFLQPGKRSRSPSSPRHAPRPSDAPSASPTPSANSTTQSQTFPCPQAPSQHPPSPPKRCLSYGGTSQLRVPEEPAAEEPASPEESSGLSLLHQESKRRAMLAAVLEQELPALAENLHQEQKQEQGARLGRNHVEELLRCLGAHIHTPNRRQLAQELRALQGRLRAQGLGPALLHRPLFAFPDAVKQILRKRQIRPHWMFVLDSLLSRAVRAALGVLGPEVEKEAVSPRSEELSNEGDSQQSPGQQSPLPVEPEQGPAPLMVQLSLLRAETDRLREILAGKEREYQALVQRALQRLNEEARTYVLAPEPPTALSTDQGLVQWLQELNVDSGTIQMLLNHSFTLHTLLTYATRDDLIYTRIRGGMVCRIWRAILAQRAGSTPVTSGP
row,SMILES,Kd
1,N[C@@H]1CCCN(c2c(/C=C3\SC(=O)NC3=O)cccc2-c2ccccc2)C1,> 30 µM (inactive)
2,Cc1ccc(S(=O)(=O)Nc2nc3ccccc3nc2Nc2ccc3nsnc3c2)cc1,> 30 µM (inactive)
3,CN1CC[C@@H](c2c(O)cc(O)c3c(=O)cc(-c4ccccc4Cl)oc23)[C@@H]1CO,> 30 µM (inactive)
4,Cc1cc(-c2cc(O)ccc2Cl)cc2nnc(Nc3ccc(OCCN4CCCC4)cc3)nc12,> 30 µM (inactive)
5,CCN1CCN(Cc2ccc(-c3cc4c(N[C@H](C)c5ccccc5)ncnc4[nH]3)cc2)CC1 [AEE-788],> 30 µM (inactive)
6,Cn1ncc(Cl)c1-c1cc(C(=O)N[C@H](CN)Cc2cccc(F)c2)sc1Cl [AFURESERTIB],> 30 µM (inactive)
7,COc1cc(N2CCC(N3CCN(C)CC3)CC2)ccc1Nc1ncnc(Nc2ccccc2S(=O)(=O)C(C)C)n1 [ASP-3026],> 30 µM (inactive)
8,Cc1nc(N)sc1-c1ccnc(Nc2ccc(N3CCOCC3)cc2)n1 [CYC-116],> 30 µM (inactive)
9,CCc1cnn2c(NCc3ccc[n+]([O-])c3)cc(N3CCCC[C@H]3CCO)nc12 [DINACICLIB],> 30 µM (inactive)
10,Cc1cc(Nc2cc(N3CCN(C)CC3)nc(/C=C/c3ccccc3)n2)n[nH]1 [ENMD-2076],> 30 µM (inactive)

# Biological target: T3, Serine/threonine-protein kinase PLK4 (Homo sapiens, UniProt O00444)
# T3 sequence (O00444 whole entry): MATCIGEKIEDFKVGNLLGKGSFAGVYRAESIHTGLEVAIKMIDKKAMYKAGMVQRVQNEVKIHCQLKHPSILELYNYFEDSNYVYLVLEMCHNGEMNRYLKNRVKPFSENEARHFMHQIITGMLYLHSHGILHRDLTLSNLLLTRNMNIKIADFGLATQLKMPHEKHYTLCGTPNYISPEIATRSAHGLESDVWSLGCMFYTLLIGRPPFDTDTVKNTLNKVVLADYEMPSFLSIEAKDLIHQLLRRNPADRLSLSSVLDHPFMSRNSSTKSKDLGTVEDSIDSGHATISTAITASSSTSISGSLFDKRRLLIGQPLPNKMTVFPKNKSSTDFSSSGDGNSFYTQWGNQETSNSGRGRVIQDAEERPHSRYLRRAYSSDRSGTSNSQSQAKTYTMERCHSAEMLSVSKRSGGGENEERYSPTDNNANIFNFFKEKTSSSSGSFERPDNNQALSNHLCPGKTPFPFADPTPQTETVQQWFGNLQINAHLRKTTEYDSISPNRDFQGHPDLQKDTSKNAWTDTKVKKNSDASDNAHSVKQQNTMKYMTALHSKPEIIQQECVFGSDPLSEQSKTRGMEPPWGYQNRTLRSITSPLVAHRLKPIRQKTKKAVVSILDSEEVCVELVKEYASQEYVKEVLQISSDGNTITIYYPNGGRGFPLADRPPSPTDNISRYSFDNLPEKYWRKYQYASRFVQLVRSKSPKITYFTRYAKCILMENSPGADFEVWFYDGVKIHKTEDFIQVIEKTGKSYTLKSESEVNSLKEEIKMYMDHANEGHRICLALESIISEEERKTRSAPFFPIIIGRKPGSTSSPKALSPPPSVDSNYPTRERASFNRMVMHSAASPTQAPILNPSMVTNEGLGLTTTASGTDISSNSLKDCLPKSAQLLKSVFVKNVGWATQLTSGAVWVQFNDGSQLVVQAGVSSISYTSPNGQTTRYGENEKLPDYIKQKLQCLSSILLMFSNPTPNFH
row,SMILES,Kd
1,N[C@@H]1CCCN(c2c(/C=C3\SC(=O)NC3=O)cccc2-c2ccccc2)C1,> 30 µM (inactive)
2,Cc1ccc(S(=O)(=O)Nc2nc3ccccc3nc2Nc2ccc3nsnc3c2)cc1,> 30 µM (inactive)
3,CN1CC[C@@H](c2c(O)cc(O)c3c(=O)cc(-c4ccccc4Cl)oc23)[C@@H]1CO,> 30 µM (inactive)
4,Cc1cc(-c2cc(O)ccc2Cl)cc2nnc(Nc3ccc(OCCN4CCCC4)cc3)nc12,> 30 µM (inactive)
5,CCN1CCN(Cc2ccc(-c3cc4c(N[C@H](C)c5ccccc5)ncnc4[nH]3)cc2)CC1 [AEE-788],> 30 µM (inactive)
6,Cn1ncc(Cl)c1-c1cc(C(=O)N[C@H](CN)Cc2cccc(F)c2)sc1Cl [AFURESERTIB],> 30 µM (inactive)
7,COc1cc(N2CCC(N3CCN(C)CC3)CC2)ccc1Nc1ncnc(Nc2ccccc2S(=O)(=O)C(C)C)n1 [ASP-3026],0.07 µM (active)
8,CCc1cnn2c(NCc3ccc[n+]([O-])c3)cc(N3CCCC[C@H]3CCO)nc12 [DINACICLIB],> 30 µM (inactive)

# Biological target: Receptor-interacting serine/threonine-protein kinase 3 (Homo sapiens, UniProt Q9Y572)
# Sequence (Q9Y572 whole entry): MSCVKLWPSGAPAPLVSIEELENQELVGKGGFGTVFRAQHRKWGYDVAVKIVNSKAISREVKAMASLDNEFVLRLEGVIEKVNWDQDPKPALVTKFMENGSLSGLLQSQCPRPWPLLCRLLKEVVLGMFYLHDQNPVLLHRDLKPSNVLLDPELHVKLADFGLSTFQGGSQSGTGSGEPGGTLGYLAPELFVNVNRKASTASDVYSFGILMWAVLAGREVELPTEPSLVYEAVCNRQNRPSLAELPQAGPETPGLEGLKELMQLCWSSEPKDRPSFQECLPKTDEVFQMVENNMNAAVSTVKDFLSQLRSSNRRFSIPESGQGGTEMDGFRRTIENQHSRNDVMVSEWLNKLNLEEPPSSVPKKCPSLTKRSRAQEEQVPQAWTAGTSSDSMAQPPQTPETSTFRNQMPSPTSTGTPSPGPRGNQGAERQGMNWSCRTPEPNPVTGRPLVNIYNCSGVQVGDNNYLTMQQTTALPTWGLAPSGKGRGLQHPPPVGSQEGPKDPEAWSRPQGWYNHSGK
row,SMILES,Kd
1,N[C@@H]1CCCN(c2c(/C=C3\SC(=O)NC3=O)cccc2-c2ccccc2)C1,> 30 µM (inactive)
2,Cc1ccc(S(=O)(=O)Nc2nc3ccccc3nc2Nc2ccc3nsnc3c2)cc1,> 30 µM (inactive)
3,CN1CC[C@@H](c2c(O)cc(O)c3c(=O)cc(-c4ccccc4Cl)oc23)[C@@H]1CO,> 30 µM (inactive)
4,Cc1cc(-c2cc(O)ccc2Cl)cc2nnc(Nc3ccc(OCCN4CCCC4)cc3)nc12,0.003 µM (active)
5,CCN1CCN(Cc2ccc(-c3cc4c(N[C@H](C)c5ccccc5)ncnc4[nH]3)cc2)CC1 [AEE-788],> 30 µM (inactive)
6,Cn1ncc(Cl)c1-c1cc(C(=O)N[C@H](CN)Cc2cccc(F)c2)sc1Cl [AFURESERTIB],> 30 µM (inactive)
7,COc1cc(N2CCC(N3CCN(C)CC3)CC2)ccc1Nc1ncnc(Nc2ccccc2S(=O)(=O)C(C)C)n1 [ASP-3026],> 30 µM (inactive)
8,Cc1nc(N)sc1-c1ccnc(Nc2ccc(N3CCOCC3)cc2)n1 [CYC-116],4.82 µM (active)
9,CCc1cnn2c(NCc3ccc[n+]([O-])c3)cc(N3CCCC[C@H]3CCO)nc12 [DINACICLIB],> 30 µM (inactive)
10,CN1CCN(c2ccc3nc(-c4c(N)c5c(F)cccc5[nH]c4=O)[nH]c3c2)CC1 [DOVITINIB],> 30 µM (inactive)
11,Cc1cc(Nc2cc(N3CCN(C)CC3)nc(/C=C/c3ccccc3)n2)n[nH]1 [ENMD-2076],> 30 µM (inactive)
